The assay deals with T1, Serine protease 1 (Bos taurus, UniProt P00760).
T1 sequence (P00760 whole entry): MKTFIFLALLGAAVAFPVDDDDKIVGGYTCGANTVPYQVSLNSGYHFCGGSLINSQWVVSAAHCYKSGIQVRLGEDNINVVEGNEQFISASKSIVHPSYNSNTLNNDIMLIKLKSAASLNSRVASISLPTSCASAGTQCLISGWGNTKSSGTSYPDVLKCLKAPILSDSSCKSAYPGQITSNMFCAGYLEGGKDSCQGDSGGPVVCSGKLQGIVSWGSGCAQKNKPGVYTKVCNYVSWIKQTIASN
Kind of assay: In vitro inhibitory activity against trypsin.

The term IC50 denotes the concentration that inhibits the measured activity by half. `Cn1c(CNC(=O)[C@@H]2C=CCN2C(=O)[C@@H](CC2CCCCC2)NCC(=O)O)ccc1C(=N)N` yielded an IC50 of 16 nM.

`Cn1cc(CNC(=O)[C@@H]2C=CCN2C(=O)[C@@H](CC2CCCCC2)NCC(=O)O)cc1C(=N)N`: the IC50 turned out to be 306 nM.

For the origin of these results see ChEMBL document CHEMBL1136541, “D-Phe-Pro-Arg type thrombin inhibitors: unexpected selectivity by modification of the P1 moiety” (Bioorg Med Chem Lett, 2003).
